Values after ≈ are worked out from the molar mass of the structure shown. Square brackets hold non-standard residues; d marks the D form. Ends that are not written are not given here. Peptide text beside a SMILES is read from it.
How the values were obtained:
[1] = tested on: Escherichia coli ATCC 8739; assay type: cell-based; details: ATCC 8739
Protocol: (§1) The antimicrobial activities of the peptides were evaluated by determining their minimal inhibitory concentration (MIC) and minimal bactericidal concentration (MBC) values following reported protocols [20]. The tested microorganisms included seven Gram-negative bacterial strains (Escherichia coli ATCC 8739, E. coli ATCC-BAA 2340, E. coli NCTC 13846, Klebsiella pneumoniae ATCC 43816, K. pneumoniae ATCC BAA-2342, Pseudomonas aeruginosa ATCC 9027, Acinetobacter baumannii ATCC BAA-747), three Gram-positive bacterial strains (Staphylococcus aureus ATCC 6538, Enterococcus faecalis NCTC 12697, MRSA NCTC 12493, and the fungal strain Candida albicans ATCC 10231. For the assay, each bacterial strain was cultured overnight at 37 °C in 100 mL of medium in a flask. The cultures were then subcultured to reach the logarithmic growth phase and diluted to 5 × 10^5 CFU/mL. Peptide samples were serially diluted two-fold in microplates, with concentrations ranging from 128 μM to 1 μM. The diluted bacterial suspensions were mixed with the peptide solutions and incubated overnight at 37 °C. The MIC values were determined by measuring the absorbance of each well using a Synergy HT plate reader (Agilent, Cheshire, UK). For MBC determination, aliquots from wells showing no visible growth were inoculated onto agar plates to assess bacterial viability. Each experiment was repeated independently three times and conducted in three independent replicates.

E. coli ATCC BAA-2340 = assay type: cell-based, Escherichia coli
Protocol: as §1

E. coli NCTC 13846 = assay type: cell-based, Escherichia coli
Protocol: as §1

[2] = tested on: Klebsiella pneumoniae ATCC 43816; assay type: cell-based; details: ATCC 43816
Protocol: as §1

[3] = tested on: K. pneumoniae ATCC BAA-2342; assay type: cell-based, Klebsiella pneumoniae
Protocol: as §1

[4] = tested on: Pseudomonas aeruginosa ATCC 9027; assay type: cell-based
Protocol: as §1

[5] = tested on: Acinetobacter baumannii ATCC BAA-747; assay type: cell-based; details: ATCC BAA-747
Protocol: as §1

[6] = tested on: Staphylococcus aureus ATCC 6538; assay type: cell-based; details: ATCC 6538
Protocol: as §1

[7] = tested on: Enterococcus faecalis NCTC 12697; assay type: cell-based; details: NCTC 12697
Protocol: as §1

MRSA NCTC 12493 = assay type: cell-based, Staphylococcus aureus
Protocol: as §1

horse red blood cells = test: Haemolysis assay; assay type: cell-based; details: concentration inducing 10% haemolysis of horse erythrocytes; 4% (v/v) in PBS, 2 h, 37 °C, absorbance 570 nm; no haemolysis at maximum testing concentration (128 μM) recorded as 256 μM
Protocol: The peptide cytotoxicity against mammalian erythrocytes was evaluated by haemolysis assay on horse red blood cells (E&O Laboratories Ltd., Falkirk, UK). Fresh horse blood was washed three times with PBS and resuspended to a final concentration of 4% (v/v) in PBS. The diluted blood suspension was then mixed with peptide solutions at varying concentrations and incubated for 2 h at 37 °C. Red blood cell suspensions treated with 0.1% Triton X-100 and PBS were used as controls. The Triton X-100-treated suspension was the positive control (for 100% haemolysis), while the PBS-treated suspension was the blank control. Following incubation, the mixtures were centrifuged at 1000× g for 10 min to separate erythrocytes from the supernatant. The absorbance of the supernatants was detected at 570 nm. The percentage haemolysis was calculated by following the equationPercentage Haemolysis = (AbsSample − AbsBlank)/(AbsPositive − AbsBlank) × 100%

Gram-negative bacteria = test: Geometric mean MIC and therapeutic index, Gram-negative; assay type: cell-based; details: geometric mean of MICs
Gram-positive bacteria = test: Geometric mean MIC and therapeutic index, Gram-positive; assay type: cell-based; details: geometric mean of MICs
E. coli (ATCC-BAA 2340) = assay type: cell-based, Escherichia coli; details: ATCC-BAA 2340
Protocol: The peptide sensitivity was determined in different salt- and serum-containing environments. Bacterial strains were prepared following the MIC detection protocol described previously. To evaluate peptide sensitivity under physiological conditions, various concentrations of salt ions (150 mM NaCl, 4.5 mM KCl, 2 mM CaCl2, 1 mM MgCl2, 8 µM ZnCl2, 6 µM NH4Cl, or 4 µM FeCl3) and serum (10% FBS) were prepared in McCartney bottles prior to the addition of bacterial suspensions. The subcultured bacterial suspensions were then introduced to these modified media conditions. For MIC determination, the treated bacterial suspensions were diluted and dispensed into 96-well plates containing peptide solutions at graded concentrations. This assay allowed for the detection of potential alterations in MIC values, serving as an indicator of peptide sensitivity under different physiological conditions. All experiments were independently repeated three times, each with three replicates.

| Compound | MBC, E. coli (ATCC 8739) [1] [µM] | MIC, E. coli (ATCC 8739) [1] [µM] | MBC, E. coli (ATCC BAA-2340) (E. coli ATCC BAA-2340) [µM] | MIC, E. coli (ATCC BAA-2340) (E. coli ATCC BAA-2340) [µM] | MBC, E. coli (NCTC 13846) (E. coli NCTC 13846) [µM] | MIC, E. coli (NCTC 13846) (E. coli NCTC 13846) [µM] | MBC, K. pneumoniae (ATCC 43816) [2] [µM] | MIC, K. pneumoniae (ATCC 43816) [2] [µM] | MBC, K. pneumoniae (ATCC BAA-2342) [3] [µM] | MIC, K. pneumoniae (ATCC BAA-2342) [3] [µM] | MBC, P. aeruginosa (ATCC 9027) [4] | MIC, P. aeruginosa (ATCC 9027) [4] | MBC, A. baumannii (ATCC BAA-747) [5] [µM] | MIC, A. baumannii (ATCC BAA-747) [5] [µM] | MBC, S. aureus (ATCC 6538) [6] [µM] | MIC, S. aureus (ATCC 6538) [6] [µM] | MBC, E. faecalis (NCTC 12697) [7] [µM] | MIC, E. faecalis (NCTC 12697) [7] [µM] | MBC, MRSA (NCTC 12493) (MRSA NCTC 12493) [µM] | MIC, MRSA (NCTC 12493) (MRSA NCTC 12493) [µM] | other results |
| --- | --- | --- | --- | --- | --- | --- | --- | --- | --- | --- | --- | --- | --- | --- | --- | --- | --- | --- | --- | --- | --- |
| GLLSVLGSLKKIVPHVVPLIAEKL-NH2 [Caerin 1.1-LC 11K] | 16 | 8 | 8 | 2 | 8 | 4 | 32 | 16 | 16 | 8 | 32 µM | 16 µM | 32 | 32 | 32 | 8 | 128 | 128 | 8 | 8 | HC10 (horse red blood cells): 35.8 µM; GM MIC Gram-Negative (Gram-negative bacteria): 8.8 µM; GM MIC Gram-Positive (Gram-positive bacteria): 20.1 µM |
| CC[C@H](C)[C@H](NC(=O)[C@H](CCCCN)NC(=O)[C@@H]1CCCN1C(=O)[C@@H](CC(C)C)NC(=O)[C@H](C)NC(=O)[C@H](CCCCN)NC(=O)[C@@H]1CCCN1C(=O)[C@@H](NC(=O)[C@@H](NC(=O)[C@H](CC(C)C)NC(=O)[C@H](CCCCN)NC(=O)[C@H](CC(C)C)NC(=O)[C@H](CO)NC(=O)CNC(=O)[C@H](CC(C)C)NC(=O)[C@@H](NC(=O)[C@H](CO)NC(=O)[C@H](CC(C)C)NC(=O)[C@H](CC(C)C)NC(=O)CN)C(C)C)[C@@H](C)CC)C(C)C)C(=O)N[C@@H](C)C(=O)N[C@@H](CCC(=O)O)C(=O)N[C@@H](CCCCN)C(=O)N[C@@H](CC(C)C)C(N)=O [Caerin 1.1-LC PKAL(D)P] (H-GLLSVLGSLKLIVPKA[dL]PKIAEKL-NH2; N-terminus assumed) | 2 (≈ 5 µg/mL) | 2 (≈ 5 µg/mL) | 2 (≈ 5 µg/mL) | 2 (≈ 5 µg/mL) | 8 (≈ 20 µg/mL) | 8 (≈ 20 µg/mL) | 4 (≈ 10 µg/mL) | 4 (≈ 10 µg/mL) | 4 (≈ 10 µg/mL) | 4 (≈ 10 µg/mL) | 4/4 µM | 4/4 µM | 32 (≈ 80 µg/mL) | 32 (≈ 80 µg/mL) | 32 (≈ 80 µg/mL) | 32 (≈ 80 µg/mL) | >128 | >128 | 8 (≈ 20 µg/mL) | 4 (≈ 10 µg/mL) | HC10 (horse red blood cells): 43.4 µM; GM MIC Gram-Negative (Gram-negative bacteria): 4.87 µM; GM MIC Gram-Positive (Gram-positive bacteria): 64 µM; MIC, Ca^2+ (E. coli (ATCC-BAA 2340)): 128 µM (≈ 320 µg/mL); MIC, Control (E. coli (ATCC-BAA 2340)): 2 µM (≈ 5 µg/mL); MIC, FBS (E. coli (ATCC-BAA 2340)): 16 µM (≈ 40 µg/mL); MIC, Fe^3+ (E. coli (ATCC-BAA 2340)): 2 µM (≈ 5 µg/mL); MIC, K^+ (E. coli (ATCC-BAA 2340)): 2 µM (≈ 5 µg/mL); MIC, Mg^2+ (E. coli (ATCC-BAA 2340)): 16 µM (≈ 40 µg/mL); MIC, NH4^+ (E. coli (ATCC-BAA 2340)): 2 µM (≈ 5 µg/mL); MIC, Na^+ (E. coli (ATCC-BAA 2340)): 4 µM (≈ 10 µg/mL) |
| GLLSVLGSLKLIVAHVVALIAEKL-NH2 [Caerin 1.1-LC 2P-2A] | >128 | >128 | >128 | >128 | >128 | >128 | >128 | >128 | >128 | >128 | >128 µM | >128 µM | >128 | >128 | >128 | >128 | >128 | >128 | >128 | >128 | HC10 (horse red blood cells): 256 µM; GM MIC Gram-Negative (Gram-negative bacteria): 256 µM; GM MIC Gram-Positive (Gram-positive bacteria): 256 µM |
| GLLSVLGSLKKIVPKAVPKIAEKL-NH2 [Caerin 1.1-LC 11K.19K.PKAVP] | 8 | 8 | 8 | 8 | 2 | 2 | 64 | 64 | >128 | >128 | 64 µM | 32 µM | 128 | 128 | >128 | >128 | >128 | >128 | 64 | 64 | HC10 (horse red blood cells): 256 µM; GM MIC Gram-Negative (Gram-negative bacteria): 26.08 µM; GM MIC Gram-Positive (Gram-positive bacteria): 161.5 µM |
| GLLSVLGSLKKIVPHVVPWIAKKL-NH2 [Caerin 1.1-LC 11K.12K.19W] | 2 | 2 | 2 | 2 | 4 | 2 | 4 | 4 | 4 | 4 | 4/4 µM | 4/4 µM | 4 | 4 | 2 | 2 | 32 | 16 | 2 | 2 | HC10 (horse red blood cells): 10.5 µM; GM MIC Gram-Negative (Gram-negative bacteria): 4 µM; GM MIC Gram-Positive (Gram-positive bacteria): 2.97 µM; MIC, Ca^2+ (E. coli (ATCC-BAA 2340)): 8 µM; MIC, Control (E. coli (ATCC-BAA 2340)): 4 µM; MIC, FBS (E. coli (ATCC-BAA 2340)): 8 µM; MIC, Fe^3+ (E. coli (ATCC-BAA 2340)): 4 µM; MIC, K^+ (E. coli (ATCC-BAA 2340)): 4 µM; MIC, Mg^2+ (E. coli (ATCC-BAA 2340)): 4 µM; MIC, NH4^+ (E. coli (ATCC-BAA 2340)): 4 µM; MIC, Na^+ (E. coli (ATCC-BAA 2340)): 4 µM |
| GLLSVLGSLKLIVPHWWPLIAEKL-NH2 [Caerin 1.1-LC PHWWP] | 64 | 32 | 32 | 16 | 128 | 64 | >128 | >128 | >128 | >128 | >128 µM | >128 µM | >128 | >128 | >128 | >128 | >128 | >128 | >128 | >128 | HC10 (horse red blood cells): 256 µM; GM MIC Gram-Negative (Gram-negative bacteria): 105 µM; GM MIC Gram-Positive (Gram-positive bacteria): 256 µM |
| GLLSVLGSLKLIVPHLLPLIAEKL-NH2 [Caerin 1.1-LC PHLLP] | 8 | 4 | 4 | 4 | 4 | 4 | 8 | 8 | 16 | 8 | 64 µM | 32 µM | 8 | 4 | 4 | 4 | 32 | 32 | 4 | 4 | HC10 (horse red blood cells): 1.6 µM; GM MIC Gram-Negative (Gram-negative bacteria): 8 µM; GM MIC Gram-Positive (Gram-positive bacteria): 6.56 µM |
